In ChEMBL document CHEMBL1201862, “PubChem BioAssay data set” (2004):
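Cultured in 96-well plates, cells were exposed to test compound for 48 hours across five concentrations. Abbreviation: GI50, concentration required for 50% inhibition of growth.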 The source made the active and inactive calls. Rule as the data show it: active = GI50 up to about 1.1 µM and inactive = higher.

Columns and labels:
Test in all cases: NCI anticancer screen, dose series, 48 h
ACHN = system: ACHN
DU-145 = system: DU-145
HCC 2998 = system: HCC 2998
HOP-62 = system: HOP-62
HT-29 = system: HT-29
Hs-578T = system: Hs-578T
K562 = system: K562
NCI-H23 = system: NCI-H23
NCI-H460 = system: NCI-H460
NCI-H522 = system: NCI-H522
OVCAR-3 = system: OVCAR-3
SF-268 = system: SF-268
SF-295 = system: SF-295
SK-MEL-2 = system: SK-MEL-2
SK-MEL-5 = system: SK-MEL-5
SW-620 = system: SW-620
UO-31 = system: UO-31
HL-60 = system: HL-60
IGROV-1 = system: IGROV-1
PC-3 = system: PC-3

Row | SMILES | GI50 (ACHN) | GI50 (DU-145) | GI50 (HCC 2998) | GI50 (HOP-62) | GI50 (HT-29) | GI50 (Hs-578T) | GI50 (K562) | GI50 (NCI-H23) | GI50 (NCI-H460) | GI50 (NCI-H522) | GI50 (OVCAR-3) | GI50 (SF-268) | GI50 (SF-295) | GI50 (SK-MEL-2) | GI50 (SK-MEL-5) | GI50 (SW-620) | GI50 (UO-31) | GI50 (HL-60) | GI50 (IGROV-1) | GI50 (PC-3)
1 | CCN(CC)C(=S)SS(=O)(=O)c1ccc(C)cc1 | 34.7 µM (inactive) | 42.6 µM (inactive) | 36.9 µM (inactive) | 23.2 µM (inactive) | 13.2 µM (inactive) | 75.5 µM (inactive) | 28.5 µM (inactive) | 42.4 µM (inactive) | 27.2 µM (inactive) | < 0.01 µM (active) | 39.6 µM (inactive) | 55.2 µM (inactive) | 52.7 µM (inactive) | 50.4 µM (inactive) | 0.644 µM (active) | 19.9 µM (inactive) | 20.7 µM (inactive) |  |  | 
2 | CN(C)/C=N/c1c2c(nc3ccccc13)CCCC2 | > 100 µM (inactive) | > 100 µM (inactive) |  | > 100 µM (inactive) | 36.7 µM (inactive) | > 100 µM (inactive) | 32 µM (inactive) | 50.7 µM (inactive) |  | > 100 µM (inactive) | 38.6 µM (inactive) | > 100 µM (inactive) | 41.5 µM (inactive) | > 100 µM (inactive) | > 100 µM (inactive) |  | 67.8 µM (inactive) | 31.1 µM (inactive) | > 100 µM (inactive) | 38.5 µM (inactive)
3 | Nc1ccccc1CC(O)C(=O)O (stereo not drawn) | > 100 µM (inactive) | > 100 µM (inactive) | > 100 µM (inactive) | > 100 µM (inactive) | > 100 µM (inactive) | > 100 µM (inactive) | > 100 µM (inactive) | > 100 µM (inactive) | > 100 µM (inactive) |  | > 100 µM (inactive) | > 100 µM (inactive) | > 100 µM (inactive) |  | > 100 µM (inactive) | > 100 µM (inactive) |  | > 100 µM (inactive) |  | > 100 µM (inactive)
4 | C=CCNC1=C2C[C@@H](C)C[C@@H](OC)[C@H](OC(=O)CCCCN)[C@H](C)/C=C(\C)[C@@H](OC(N)=O)[C@H](OC)/C=C\C=C(/C)C(=O)NC(=CC1=O)C2=O | 19.5 µM (inactive) | 6.47 µM (inactive) | 4.27 µM (inactive) | 5.83 µM (inactive) | 4.27 µM (inactive) | 25.6 µM (inactive) | 9.62 µM (inactive) | 14.6 µM (inactive) | 11.6 µM (inactive) | 13.6 µM (inactive) | 3.22 µM (inactive) | 16.9 µM (inactive) | 15.7 µM (inactive) | 3.72 µM (inactive) | 11.6 µM (inactive) | 6.18 µM (inactive) | 19.5 µM (inactive) | 11.7 µM (inactive) | 13.6 µM (inactive) | 
5 | COC(=O)c1c2c(cc3c1CC1(Cc4cc5c(cc4C1)CCCC5)C3)CCCC2 | > 100 µM (inactive) |  | > 100 µM (inactive) | > 100 µM (inactive) | > 100 µM (inactive) | > 100 µM (inactive) | > 100 µM (inactive) | > 100 µM (inactive) |  | > 100 µM (inactive) | > 100 µM (inactive) |  | > 100 µM (inactive) | > 100 µM (inactive) | > 100 µM (inactive) |  | > 100 µM (inactive) | 80.4 µM (inactive) | > 100 µM (inactive) | > 100 µM (inactive)
6 | Cc1cc(-c2cccc3ccccc23)c(C#N)c(=S)n1C1OC(CO)C(O)C(O)C1O (stereo not drawn) | > 100 µM (inactive) |  | > 100 µM (inactive) | > 100 µM (inactive) | > 100 µM (inactive) | 86.5 µM (inactive) |  | > 100 µM (inactive) | > 100 µM (inactive) |  | > 100 µM (inactive) |  | > 100 µM (inactive) | > 100 µM (inactive) | 67 µM (inactive) | > 100 µM (inactive) |  | > 100 µM (inactive) | > 100 µM (inactive) | > 100 µM (inactive)
7 | CC(=O)Nc1ncc2c(n1)-c1ccccc1OC2c1ccccc1 (stereo not drawn) | 11 µM (inactive) | > 100 µM (inactive) |  |  | > 100 µM (inactive) | 6.89 µM (inactive) |  | 26.1 µM (inactive) | > 100 µM (inactive) | 37.7 µM (inactive) | > 100 µM (inactive) | 15.4 µM (inactive) | 32.2 µM (inactive) | 71.8 µM (inactive) | > 100 µM (inactive) | > 100 µM (inactive) | > 100 µM (inactive) | > 100 µM (inactive) | 46.5 µM (inactive) | > 100 µM (inactive)
8 | CC1CN=C(Nc2ccc(F)cc2F)S1 (stereo not drawn) | > 100 µM (inactive) | > 100 µM (inactive) | > 100 µM (inactive) | > 100 µM (inactive) |  | > 100 µM (inactive) | > 100 µM (inactive) | > 100 µM (inactive) | > 100 µM (inactive) |  | > 100 µM (inactive) | > 100 µM (inactive) | > 100 µM (inactive) | > 100 µM (inactive) | > 100 µM (inactive) | > 100 µM (inactive) | > 100 µM (inactive) | > 100 µM (inactive) | > 100 µM (inactive) | > 100 µM (inactive)
9 | CC1(C)N=C(N)N=C(N)N1c1cccc(OCc2cccc(N)c2)c1 | > 100 µM (inactive) | > 86.3 µM (inactive) |  | > 91.6 µM (inactive) | 16.9 µM (inactive) | > 100 µM (inactive) | 3.17 µM (inactive) | 14.2 µM (inactive) | 3.87 µM (inactive) | 26.4 µM (inactive) | 39.6 µM (inactive) | 14.3 µM (inactive) | > 79.6 µM (inactive) | > 100 µM (inactive) | 12.4 µM (inactive) | > 100 µM (inactive) | > 100 µM (inactive) | 5.61 µM (inactive) | 3.31 µM (inactive) | > 38.7 µM (inactive)
10 | COC(=O)C(O)P(=O)(OC)OC (stereo not drawn) | > 100 µM (inactive) | > 100 µM (inactive) |  | > 100 µM (inactive) | > 100 µM (inactive) | > 100 µM (inactive) | > 100 µM (inactive) | > 100 µM (inactive) |  | > 100 µM (inactive) | > 100 µM (inactive) | > 100 µM (inactive) | > 100 µM (inactive) | > 100 µM (inactive) | > 100 µM (inactive) | > 100 µM (inactive) | > 100 µM (inactive) | > 100 µM (inactive) | > 100 µM (inactive) | > 100 µM (inactive)
11 | NC1CNC(=O)c2cscc21 (stereo not drawn) | > 100 µM (inactive) | > 100 µM (inactive) | > 100 µM (inactive) |  | > 100 µM (inactive) | > 100 µM (inactive) | > 100 µM (inactive) | > 100 µM (inactive) | > 100 µM (inactive) | > 100 µM (inactive) | > 100 µM (inactive) | > 100 µM (inactive) | > 100 µM (inactive) |  | > 100 µM (inactive) | > 100 µM (inactive) | > 100 µM (inactive) | > 100 µM (inactive) | > 100 µM (inactive) | 53.2 µM (inactive)
12 | [N-]=[N+]=Nc1c(-c2ccccc2)c(=O)n(-c2ccccc2)c2ccccc12 | 49.4 µM (inactive) | > 100 µM (inactive) | 35.2 µM (inactive) | 99.5 µM (inactive) | 41.7 µM (inactive) | 56.9 µM (inactive) | > 100 µM (inactive) | 80.5 µM (inactive) | 46.5 µM (inactive) | 27.7 µM (inactive) | 52 µM (inactive) | 13.2 µM (inactive) | 49 µM (inactive) |  |  | > 100 µM (inactive) | 37.3 µM (inactive) | > 100 µM (inactive) | > 100 µM (inactive) | 32.4 µM (inactive)
13 | CCCCCCCCCCCCCCCCOCC(Cl)COP(=O)(O)OP(=O)(O)OCC1OC(n2cc(C)c(=O)[nH]c2=O)CC1O (stereo not drawn) | > 100 µM (inactive) |  | > 100 µM (inactive) | > 100 µM (inactive) | > 100 µM (inactive) | 31.4 µM (inactive) | > 100 µM (inactive) | > 100 µM (inactive) | > 100 µM (inactive) | > 100 µM (inactive) | > 100 µM (inactive) | 69.2 µM (inactive) | 57 µM (inactive) | > 100 µM (inactive) | > 100 µM (inactive) | > 100 µM (inactive) | > 100 µM (inactive) | > 100 µM (inactive) | 55.2 µM (inactive) | 25.1 µM (inactive)
14 | O=c1c(C(c2ccc(C(c3c(O)oc4cc(O)ccc4c3=O)c3c(O)oc4cc(O)ccc4c3=O)cc2)c2c(O)oc3cc(O)ccc3c2=O)c(O)oc2cc(O)ccc12 |  | > 100 µM (inactive) | > 100 µM (inactive) | > 100 µM (inactive) | > 100 µM (inactive) | > 100 µM (inactive) | > 100 µM (inactive) | > 100 µM (inactive) | > 100 µM (inactive) |  | > 100 µM (inactive) | > 100 µM (inactive) | > 100 µM (inactive) | > 100 µM (inactive) | 48.6 µM (inactive) | > 100 µM (inactive) | > 100 µM (inactive) | 44.6 µM (inactive) | > 100 µM (inactive) | > 100 µM (inactive)
15 | NCCNCCNc1ccc(NCCNCCN)c2c1C(=O)c1c(O)ccc(O)c1C2=O | > 100 µM (inactive) | > 100 µM (inactive) | > 100 µM (inactive) | > 100 µM (inactive) | > 100 µM (inactive) | 68.7 µM (inactive) | > 100 µM (inactive) | > 100 µM (inactive) | 8.75 µM (inactive) | > 100 µM (inactive) | > 100 µM (inactive) | > 100 µM (inactive) | 99.3 µM (inactive) |  | > 100 µM (inactive) | > 100 µM (inactive) | > 100 µM (inactive) |  | > 100 µM (inactive) | > 100 µM (inactive)
